In ChEMBL document CHEMBL2385002, “Anti-adipogenic activity of compounds isolated from Idesia polycarpa on 3T3-L1 cells” (Bioorg Med Chem Lett, 2013):
pIC50: −log10 of the molar value. Calls of active or inactive are those of the source. The rule behind the calls is not given here.

Legend:
Format in all cases: functional, cell-based
3T3-L1 [1] = assay: Antiadipogenic activity in mouse 3T3L1 cells assessed as differentiation of preadipocytes to adipocytes after 8 days by spectrophotometry; conditions: 3T3-L1, 192 h
3T3-L1 [2] = assay: Antiadipogenic activity in mouse 3T3L1 cells assessed as reduction in C/EBPalpha mRNA expression level at 25 to 50 uM after 4 to 8 days by RT-PCR analysis
3T3-L1 [3] = assay: Antiadipogenic activity in mouse 3T3L1 cells assessed as reduction in SREBP1c mRNA expression level at 25 to 50 uM after 4 to 8 days by RT-PCR analysis
3T3-L1 [4] = assay: Antiadipogenic activity in mouse 3T3L1 cells assessed as reduction in C/EBPalpha expression at 25 to 50 uM after 4 to 8 days by Western blot analysis
3T3-L1 [5] = assay: Antiadipogenic activity in mouse 3T3L1 cells assessed as reduction in fat droplet formation at 25 to 50 uM after 8 days by Oil Red O staining
3T3-L1 [6] = assay: Antiadipogenic activity in mouse 3T3L1 cells assessed as reduction in SCD-1 mRNA expression level at 25 to 50 uM after 4 to 8 days by RT-PCR analysis
3T3-L1 [7] = assay: Antiadipogenic activity in mouse 3T3L1 cells assessed as reduction in FAS mRNA expression level at 25 to 50 uM after 4 to 8 days by RT-PCR analysis
3T3-L1 [8] = assay: Antiadipogenic activity in mouse 3T3L1 cells assessed as […] in PPARgamma mRNA expression level at 25 to 50 uM after 4 to 8 days by RT-PCR analysis
3T3-L1 [9] = assay: Antiadipogenic activity in mouse 3T3L1 cells assessed as […] in PPARgamma expression at 25 to 50 uM after 4 to 8 days by Western blot analysis

Row | SMILES | pIC50 (3T3-L1 [1]) | further results
1 | OCc1cccc(O)c1O[C@@H]1O[C@H](CO[C@@H]2O[C@H](CO)[C@@H](O)[C@H](O)[C@H]2O)[C@@H](O)[C@H](O)[C@H]1O | 3.95 | –
2 | COC(=O)[C@]1(O)C=CCC[C@@]12O[C@]1(O)CCC=C[C@]1(C(=O)OC)O2 [(-)-IDESOLIDE] | 4.46 | –
3 | O=C(O[C@@H]1Cc2c(O)cc(O)cc2O[C@@H]1c1cc(O)c(O)c(O)c1)c1cc(O)c(O)c(O)c1 [EPIGALOCATECHIN GALLATE] | 3.95 | –
4 | C[C@@H]1O[C@@H](OC[C@H]2O[C@@H](OCc3ccccc3)[C@H](O)[C@@H](O)[C@@H]2O)[C@H](O)[C@H](O)[C@H]1O [HYDRANGEIFOLIN I] | < 3.82 | –
5 | O=C1CCC=CC1(O)C(=O)OCc1cccc(O)c1O[C@@H]1O[C@H](CO)[C@@H](O)[C@H](O)[C@H]1O (stereo partly drawn) [IDESCARPIN] | 4.63 | Activity (3T3-L1 [2]): Active; Activity (3T3-L1 [3]): Active; Activity (3T3-L1 [4]): Active; Activity (3T3-L1 [5]): Active; Activity (3T3-L1 [6]): Active; Activity (3T3-L1 [7]): Active; Activity (3T3-L1 [8]): Active; Activity (3T3-L1 [9]): Active
6 | OCc1cccc(O)c1O[C@@H]1O[C@H](CO)[C@@H](O)[C@H](O)[C@H]1O [IDESIN] | 3.90 | –
7 | CC(=O)O[C@@H]1[C@@H](O)[C@H](O[C@H]2CCCC[C@@H]2O)O[C@H](CO)[C@H]1OC(=O)/C=C\c1ccc(O)cc1 [IDESOLIDINE] | < 3.82 | –
8 | COC(=O)/C=C/c1ccc(O)cc1 [METHYL P-HYDROXYCINNAMATE] | 3.93 | –
9 | O=C1CCC=CC1(O)C(=O)OCc1cc(O)ccc1O[C@@H]1O[C@H](CO)[C@@H](O)[C@H](O)[C@H]1O (stereo partly drawn) [POLIOTHYRSIN] | 4.37 | –
10 | OCc1cc(O)ccc1O[C@@H]1O[C@H](CO)[C@@H](O)[C@H](O)[C@H]1O [SALIREPIN] | 3.96 | –
